From ChEMBL document CHEMBL4431371, “Targeting the Cystic Fibrosis Transmembrane Conductance Regulator (CFTR) Protein for the Treatment of Cystic Fibrosis” (ACS Med Chem Lett, 2016)
Each block holds one molecule with its values, some of them ahead of it.

How the values were obtained:
[1] = test system: Cystic fibrosis transmembrane conductance regulator (Homo sapiens), P13569 [F508del]; test: (§1) Corrector activity at CFTR F508del mutant (unknown origin) expressed in human CFBE41o cells incubated for 18 to 24 hrs by CSE-HRP assay; type: cell-based
[2] = molecular target: T1, Cystic fibrosis transmembrane conductance regulator (Homo sapiens, UniProt P13569, F508DEL); test: as §1; type: cell-based
[3] = test system: Cystic fibrosis transmembrane conductance regulator (Homo sapiens), P13569 [F508del]; test: (§2) Corrector activity at CFTR F508del mutant in human bronchial epithelial cells incubated for 18 to 24 hrs by TECC-based conductance assay
[4] = molecular target: T1, Cystic fibrosis transmembrane conductance regulator; test: as §2

T1 sequence (P13569 as listed by the source): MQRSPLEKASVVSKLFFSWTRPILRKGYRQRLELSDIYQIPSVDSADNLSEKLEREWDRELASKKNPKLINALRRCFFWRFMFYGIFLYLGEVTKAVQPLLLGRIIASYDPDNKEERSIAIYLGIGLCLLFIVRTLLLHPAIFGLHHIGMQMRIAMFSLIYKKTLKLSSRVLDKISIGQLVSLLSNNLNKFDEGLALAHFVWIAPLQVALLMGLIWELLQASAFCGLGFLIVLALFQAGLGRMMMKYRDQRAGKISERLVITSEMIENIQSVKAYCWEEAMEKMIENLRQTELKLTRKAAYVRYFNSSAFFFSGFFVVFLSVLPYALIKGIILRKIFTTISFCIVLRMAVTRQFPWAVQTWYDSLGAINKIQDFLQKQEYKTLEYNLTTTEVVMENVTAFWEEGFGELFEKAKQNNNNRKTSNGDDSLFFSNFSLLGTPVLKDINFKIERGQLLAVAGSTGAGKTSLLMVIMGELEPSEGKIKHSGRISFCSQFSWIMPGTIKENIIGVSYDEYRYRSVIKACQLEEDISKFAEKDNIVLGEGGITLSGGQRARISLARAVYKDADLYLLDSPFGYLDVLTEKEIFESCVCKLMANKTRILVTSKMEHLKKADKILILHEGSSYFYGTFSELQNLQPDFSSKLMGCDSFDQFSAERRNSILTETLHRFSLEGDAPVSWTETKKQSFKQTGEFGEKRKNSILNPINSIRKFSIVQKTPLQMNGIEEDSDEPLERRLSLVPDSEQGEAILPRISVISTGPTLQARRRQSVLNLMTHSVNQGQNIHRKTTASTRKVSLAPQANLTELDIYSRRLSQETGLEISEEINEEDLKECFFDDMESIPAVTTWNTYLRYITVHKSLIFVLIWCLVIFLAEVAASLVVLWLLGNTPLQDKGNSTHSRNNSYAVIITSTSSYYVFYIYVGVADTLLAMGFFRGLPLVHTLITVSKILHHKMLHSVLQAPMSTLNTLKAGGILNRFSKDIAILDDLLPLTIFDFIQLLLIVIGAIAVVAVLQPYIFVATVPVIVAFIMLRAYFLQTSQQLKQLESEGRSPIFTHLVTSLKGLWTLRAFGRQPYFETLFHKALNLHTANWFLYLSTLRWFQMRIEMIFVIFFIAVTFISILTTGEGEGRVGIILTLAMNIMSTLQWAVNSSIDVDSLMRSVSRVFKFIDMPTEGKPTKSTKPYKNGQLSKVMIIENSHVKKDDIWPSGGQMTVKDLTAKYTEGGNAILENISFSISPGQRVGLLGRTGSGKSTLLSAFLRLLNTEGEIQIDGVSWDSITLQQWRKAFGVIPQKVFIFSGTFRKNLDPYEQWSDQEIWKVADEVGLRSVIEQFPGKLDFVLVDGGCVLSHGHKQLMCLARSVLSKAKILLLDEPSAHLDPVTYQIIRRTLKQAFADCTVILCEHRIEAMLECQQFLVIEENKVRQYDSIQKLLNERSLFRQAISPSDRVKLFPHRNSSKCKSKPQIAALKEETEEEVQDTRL
Sequence of Cystic fibrosis transmembrane conductance regulator (Homo sapiens), P13569 [F508del] (P13569 as listed by the source): as above

Structure (SMILES): O=C(O)c1ccc([C@H]2C[C@@H](NC(=O)C3(c4ccc5c(c4)OC(F)(F)O5)CC3)CCO2)cc1 (racemic)
max activation [1]: 113%
EC50 [2]: 2860 nM
max activation [3]: 73%
EC50 [4]: 1340 nM

Structure (SMILES): O=C(O)c1cccc([C@@H]2C[C@H](NC(=O)C3(c4ccc5c(c4)OC(F)(F)O5)CC3)C[C@H](c3ccccc3)O2)c1
max activation [1]: 16%
EC50 [2]: 20000 nM

Structure (SMILES): O=C(O)c1cccc([C@H]2C[C@@H](NC(=O)C3(c4ccc5c(c4)OC(F)(F)O5)CC3)C[C@@H](c3ccccc3)O2)c1
max activation [1]: 109%
EC50 [2]: 280 nM
max activation [3]: 94%
EC50 [4]: 100 nM

Structure (SMILES): O=C(O)c1ccc([C@H]2C[C@@H](NC(=O)C3(c4ccc5c(c4)OC(F)(F)O5)CC3)C[C@@H](c3ccccc3)O2)cc1
max activation [1]: 81%
EC50 [2]: 300 nM
max activation [3]: 73%
EC50 [4]: 260 nM

Further molecules by falling EC50 [2], results first:

max activation [1]: 106%
EC50 [2]: 1160 nM
Structure (SMILES): CCOC(=O)c1cc(C)cc([C@H]2C[C@@H](NC(=O)C3(c4ccc5c(c4)OC(F)(F)O5)CC3)C[C@@H](c3ccccc3)O2)c1 (racemic)

max activation [1]: 71%
EC50 [2]: 850 nM
Structure (SMILES): O=C(O)c1cccc([C@H]2C[C@@H](NC(=O)C3(c4ccc5c(c4)OC(F)(F)O5)CC3)CCO2)c1 (racemic)
